These results are taken from patent US20250084056A1, “SUBSTITUTED OXOISOINDOLINYL PIPERIDINE-2,6-DIONE COMPOUNDS” (BRISTOL-MYERS SQUIBB COMPANY, priority 2023, published 2025).

Some results are limits rather than exact numbers.

In general, DC50 refers to the concentration at which degradation of the target reaches its halfway point. A low value points to degradation at low concentration. A word on the Dmax: it is the greatest extent of degradation seen. By IC50 is commonly meant the concentration that inhibits the measured activity by half. Lower therefore signals greater potency in that assay.

Common to all, as to format: cell-based
One assay concerns the target Cyclin E1 (Homo sapiens, UniProt P24864+Q96SW2). The experiment in a line: Cyclin E1 Cellular Degradation Assay (MSD). The arrangement: endogenous in cells; host or cells: OVCAR3. To be noted: for DC50 / Dmax: Cyclin E1 cellular degradation; for Dmax: maximum degradation; for Ratio of GSPT1 DC50/Cyclin E1 DC50: selectivity for degradation of Cyclin E1 over GSPT1. In short, it runs like this:
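Cyclin E1 remaining after 24 h compound exposure of OVCAR3 cells was quantified in lysates by electrochemiluminescent MSD sandwich assay. DC50 (50% response concentration) and Dmax (maximum response) were calculated, with 110% response set by a reference compound at […].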

In another assay the test system is Phospho-Rb (Ser807/811). Put plainly: Phospho-Retinoblastoma (pRB) Cellular Assay. To be noted: Homo sapiens, OVCAR-3, NIH OVCAR3 cells, 24 hours; for IC50: concentration giving 50% response; for Emax: maximum response, reference compound at 10 μM = 100%, read-out: pRB Ymax. The gist of the method: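 Phospho-Rb (Ser807/811) kit read-out on EnVision after lysis (≥4 h, room temperature, dark) of OVCAR3 cells exposed to compound dilutions for 24 h. IC50 and maximum response Ymax are relative to a 10 μM reference compound defining 100%.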

The next assay addresses GSPT1 (Homo sapiens, UniProt P15170+Q96SW2). Put plainly: GSPT1 Cellular Degradation Assay (DF15-GSPT1-ePL). The arrangement: expressed in transfected cells. Particulars: DF15-GSPT1-ePL cells, 20 hours. The gist of the method:
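DC50 and Dmax were derived from chemiluminescence, with 75% response set by the reference compound at […]. Readout was ePL enzyme-fragment complementation in a DF15 line expressing chimeric GSPT1. Cells were exposed to compound for 20 h at 37 °C in RPMI 1640 with 10% FBS, cooled 30 min, then lysed with substrate for 60 min.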

Cyclin E1, sequence (P24864 whole entry): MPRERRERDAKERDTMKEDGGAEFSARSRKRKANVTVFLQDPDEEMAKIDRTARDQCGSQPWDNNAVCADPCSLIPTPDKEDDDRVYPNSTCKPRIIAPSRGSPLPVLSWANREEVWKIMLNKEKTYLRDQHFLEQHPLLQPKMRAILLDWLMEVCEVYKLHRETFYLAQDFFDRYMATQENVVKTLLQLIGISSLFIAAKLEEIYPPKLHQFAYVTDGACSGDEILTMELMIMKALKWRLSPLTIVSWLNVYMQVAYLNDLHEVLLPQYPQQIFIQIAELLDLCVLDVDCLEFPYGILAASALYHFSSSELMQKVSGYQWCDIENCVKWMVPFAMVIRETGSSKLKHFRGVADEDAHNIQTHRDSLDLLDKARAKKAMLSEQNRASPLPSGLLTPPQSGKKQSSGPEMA
Cyclin E1, sequence (Q96SW2 whole entry): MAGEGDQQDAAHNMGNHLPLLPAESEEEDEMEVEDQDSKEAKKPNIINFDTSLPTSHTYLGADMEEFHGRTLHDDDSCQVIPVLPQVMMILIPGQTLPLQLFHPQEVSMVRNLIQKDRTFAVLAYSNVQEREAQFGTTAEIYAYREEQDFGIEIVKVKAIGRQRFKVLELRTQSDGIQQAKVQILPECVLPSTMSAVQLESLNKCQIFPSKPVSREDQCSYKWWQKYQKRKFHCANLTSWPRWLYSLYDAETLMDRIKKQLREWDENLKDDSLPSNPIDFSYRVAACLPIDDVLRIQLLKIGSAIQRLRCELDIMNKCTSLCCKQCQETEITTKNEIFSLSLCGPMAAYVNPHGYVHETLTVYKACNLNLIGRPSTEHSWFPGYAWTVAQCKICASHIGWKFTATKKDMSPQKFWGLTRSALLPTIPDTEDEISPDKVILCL
Cyclin E1, sequence (Q16531 whole entry partner): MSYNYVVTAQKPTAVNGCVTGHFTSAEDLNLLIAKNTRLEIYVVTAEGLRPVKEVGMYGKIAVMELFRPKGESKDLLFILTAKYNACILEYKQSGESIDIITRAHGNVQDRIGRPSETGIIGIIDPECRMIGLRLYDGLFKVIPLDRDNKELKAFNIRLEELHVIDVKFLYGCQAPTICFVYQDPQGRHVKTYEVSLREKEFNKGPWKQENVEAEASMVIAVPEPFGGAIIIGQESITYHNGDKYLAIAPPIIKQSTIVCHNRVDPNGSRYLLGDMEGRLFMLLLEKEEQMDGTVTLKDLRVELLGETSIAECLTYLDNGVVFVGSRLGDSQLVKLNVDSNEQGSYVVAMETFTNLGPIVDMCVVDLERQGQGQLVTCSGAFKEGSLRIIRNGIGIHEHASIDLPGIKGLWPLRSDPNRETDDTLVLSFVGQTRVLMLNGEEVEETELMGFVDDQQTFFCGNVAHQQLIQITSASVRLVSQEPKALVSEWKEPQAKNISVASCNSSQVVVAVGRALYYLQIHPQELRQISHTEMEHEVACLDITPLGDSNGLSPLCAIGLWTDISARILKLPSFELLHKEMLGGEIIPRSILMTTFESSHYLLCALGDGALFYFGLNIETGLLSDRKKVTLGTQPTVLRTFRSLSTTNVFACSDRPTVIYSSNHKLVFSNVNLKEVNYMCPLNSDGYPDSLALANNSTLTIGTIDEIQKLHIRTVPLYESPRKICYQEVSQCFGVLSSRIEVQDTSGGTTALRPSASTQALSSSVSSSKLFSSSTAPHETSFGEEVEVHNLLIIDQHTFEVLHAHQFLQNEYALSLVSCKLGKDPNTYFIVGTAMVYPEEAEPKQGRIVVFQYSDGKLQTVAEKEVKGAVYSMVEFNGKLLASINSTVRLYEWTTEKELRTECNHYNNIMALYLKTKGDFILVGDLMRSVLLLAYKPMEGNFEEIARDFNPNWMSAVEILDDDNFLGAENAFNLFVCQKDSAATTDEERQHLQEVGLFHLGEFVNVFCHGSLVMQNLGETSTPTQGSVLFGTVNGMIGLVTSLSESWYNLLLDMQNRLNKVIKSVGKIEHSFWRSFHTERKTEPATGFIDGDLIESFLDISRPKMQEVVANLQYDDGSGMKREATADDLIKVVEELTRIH
GSPT1, sequence (P15170 whole entry, the tested form may be a part): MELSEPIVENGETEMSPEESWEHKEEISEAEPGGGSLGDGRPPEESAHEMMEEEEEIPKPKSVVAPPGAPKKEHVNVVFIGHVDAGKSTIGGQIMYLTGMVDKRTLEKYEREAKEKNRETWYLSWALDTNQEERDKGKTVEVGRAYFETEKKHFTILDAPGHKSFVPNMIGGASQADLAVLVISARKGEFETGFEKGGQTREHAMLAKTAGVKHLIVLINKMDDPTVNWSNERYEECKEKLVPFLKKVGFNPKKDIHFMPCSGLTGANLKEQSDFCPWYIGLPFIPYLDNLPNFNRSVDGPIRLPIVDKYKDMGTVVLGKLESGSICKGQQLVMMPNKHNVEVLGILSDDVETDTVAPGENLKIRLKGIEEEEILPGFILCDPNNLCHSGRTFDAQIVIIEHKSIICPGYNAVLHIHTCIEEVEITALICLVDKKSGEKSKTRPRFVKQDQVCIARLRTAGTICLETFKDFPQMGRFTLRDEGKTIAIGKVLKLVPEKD
GSPT1, sequence (Q96SW2 whole entry, the tested form may be a part): as the sequence (Q96SW2 whole entry) above
GSPT1, sequence (Q16531 whole entry partner, the tested form may be a part): as the sequence (Q16531 whole entry partner) above

On to `COc1c(COC(=O)Nc2ccc(Oc3cccc4ccccc34)cc2)ccc2c1C(=O)N(C1CCC(=O)NC1=O)C2` (stereo not drawn) [Example 113, [2-(2,6-dioxopiperidin-3-yl)-4-methoxy-3-oxo-2,3-dihydro-1H-isoindol-5-yl]methyl N-[4-(naphthalen-1-yloxy)phenyl]carbamate], for which, at Cyclin E1, it took 190 nM to reach half-maximal degradation (DC50), the Dmax was found to be 113% and the “Ratio of GSPT1 DC50/Cyclin E1 DC50” value is reported as greater than 74. Also, in the assay with Phospho-Rb (Ser807/811), the IC50 was 99 nM and the Emax is 93%. Further, at GSPT1, the DC50 was greater than 14000 nM and the Dmax was determined as 37%.
For the compound `CC(C)(O)COc1c(COC(=O)Nc2ccc(Oc3ccccc3)cc2)ccc2c1C(=O)N(C1CCC(=O)NC1=O)C2` (stereo not drawn) [Example 160, [2-(2,6-dioxopiperidin-3-yl)-4-(2-hydroxy-2-methylpropoxy)-3-oxo-2,3-dihydro-1H-isoindol-5-yl]methyl N-(4-phenoxyphenyl)carbamate], at Cyclin E1, the DC50 is 23 nM, the Dmax was determined as 98% and the “Ratio of GSPT1 DC50/Cyclin E1 DC50” value is listed as greater than 615. In addition, in the assay with Phospho-Rb (Ser807/811), half-maximal inhibition (IC50) required 131 nM and the Emax turned out to be 145%. At GSPT1, the DC50 is greater than 14000 nM and the Dmax came to 16%.
For the compound `COc1c(COC(=O)Nc2ccc(Oc3ccc(Cl)c(F)c3)cc2F)ccc2c1C(=O)N(C1CCC(=O)NC1=O)C2` (stereo not drawn) [Example 91, [2-(2,6-dioxopiperidin-3-yl)-4-methoxy-3-oxo-2,3-dihydro-1H-isoindol-5-yl]methyl N-[4-(4-chloro-3-fluorophenoxy)-2-fluorophenyl]carbamate], on Cyclin E1, it took 223 nM to reach half-maximal degradation (DC50), the Dmax was 106% and the “Ratio of GSPT1 DC50/Cyclin E1 DC50” value is listed as greater than 63. In addition, in the assay on Phospho-Rb (Ser807/811), the half-maximal inhibitory concentration (IC50) worked out at 160 nM and the Emax is 101%. Besides, on GSPT1, the DC50 is greater than 14000 nM and the Dmax was 20%.
For `COc1c(COC(=O)Nc2ccc(Oc3cccc(Cl)c3)cc2)ccc2c1C(=O)N(C1CCC(=O)NC1=O)C2` (stereo not drawn) [Example 3, [2-(2,6-dioxopiperidin-3-yl)-4-methoxy-3-oxo-2,3-dihydro-1H-isoindol-5-yl]methyl N-[4-(3-chlorophenoxy)phenyl]carbamate], on Cyclin E1, the DC50 was 91 nM, the Dmax is 112% and the “Ratio of GSPT1 DC50/Cyclin E1 DC50” value is greater than 153. Besides, in the assay with Phospho-Rb (Ser807/811), the IC50 is 103 nM and the Emax turned out to be 120%. Also, at GSPT1, the DC50 is greater than 14000 nM and the Dmax was 34%.
With `CC(C)(O)COc1c(COC(=O)Nc2ccc(Oc3ccc(F)cc3F)cc2F)ccc2c1C(=O)N(C1CCC(=O)NC1=O)C2` (stereo not drawn) [Example 163, [2-(2,6-dioxopiperidin-3-yl)-4-(2-hydroxy-2-methylpropoxy)-3-oxo-2,3-dihydro-1H-isoindol-5-yl]methyl N-[4-(2,4-difluorophenoxy)-2-fluorophenyl]carbamate], at Cyclin E1, the DC50 is 15 nM, the Dmax was determined as 110% and the “Ratio of GSPT1 DC50/Cyclin E1 DC50” value is given as greater than 921. In addition, in the assay with Phospho-Rb (Ser807/811), 112 nM corresponded to half-maximal inhibition (IC50) and the Emax was found to be 137%. In addition, at GSPT1, the DC50 was greater than 14000 nM and the Dmax was 7%.
In the case of `O=C1CCC(N2Cc3ccc(COC(=O)Nc4ccc(Oc5ccc(F)cc5F)cc4F)c(OC4CCOCC4)c3C2=O)C(=O)N1` (stereo not drawn) [Example 136, [2-(2,6-dioxopiperidin-3-yl)-4-(oxan-4-yloxy)-3-oxo-2,3-dihydro-1H-isoindol-5-yl]methyl N-[4-(2,4-difluorophenoxy)-2-fluorophenyl]carbamate], on Cyclin E1, the DC50 is 38 nM, the Dmax came out at 110% and the “Ratio of GSPT1 DC50/Cyclin E1 DC50” value is recorded as greater than 368. Moreover, in the assay on Phospho-Rb (Ser807/811), the IC50 was determined as 24 nM and the Emax worked out at 144%. Moreover, on GSPT1, the DC50 was greater than 14000 nM and the Dmax was found to be 11%.
As for `O=C1CCC(N2Cc3ccc(COC(=O)Nc4ccc(Oc5cc(F)cc(F)c5)cc4F)c(O[C@@H]4CCCOC4)c3C2=O)C(=O)N1` (stereo partly drawn) [Example 149, [2-(2,6-dioxopiperidin-3-yl)-4-[(3R)-oxan-3-yloxy]-3-oxo-2,3-dihydro-1H-isoindol-5-yl]methyl N-[4-(3,5-difluorophenoxy)-2-fluorophenyl]carbamate], at Cyclin E1, it took 67 nM to reach half-maximal degradation (DC50), the Dmax worked out at 109% and the “Ratio of GSPT1 DC50/Cyclin E1 DC50” value is reported as greater than 209. Further, in the assay on Phospho-Rb (Ser807/811), the IC50 was 71 nM and the Emax was determined as 144%. For the same compound, at GSPT1, the DC50 is greater than 14000 nM and the Dmax worked out at 15%.
On to `COc1cc(Oc2cc(F)c(F)cc2C)ccc1NC(=O)OCc1ccc2c(c1OC)C(=O)N(C1CCC(=O)NC1=O)C2` (stereo not drawn) [Example 73, [2-(2,6-dioxopiperidin-3-yl)-4-methoxy-3-oxo-2,3-dihydro-1H-isoindol-5-yl]methyl N-[4-(4,5-difluoro-2-methylphenoxy)-2-methoxyphenyl]carbamate], for which, on Cyclin E1, half-maximal degradation (DC50) was put at 312 nM, the Dmax was found to be 102% and the “Ratio of GSPT1 DC50/Cyclin E1 DC50” value is listed as greater than 45. Moreover, in the assay with Phospho-Rb (Ser807/811), half-maximal inhibition (IC50) required 272 nM and the Emax amounted to 118%. Further, at GSPT1, the DC50 is greater than 14000 nM and the Dmax worked out at 27%.
As to `COc1c(COC(=O)Nc2ccc(Oc3ccccc3Cl)cc2)ccc2c1C(=O)N(C1CCC(=O)NC1=O)C2` (stereo not drawn) [Example 80, [2-(2,6-dioxopiperidin-3-yl)-4-methoxy-3-oxo-2,3-dihydro-1H-isoindol-5-yl]methyl N-[4-(2-chlorophenoxy)phenyl]carbamate], on Cyclin E1, the DC50 came out at 181 nM, the Dmax came to 115% and the “Ratio of GSPT1 DC50/Cyclin E1 DC50” value is given as greater than 77. Further, in the assay on Phospho-Rb (Ser807/811), the midpoint of inhibition, the IC50, lay at 73 nM and the Emax was 119%. Moreover, on GSPT1, the DC50 is greater than 14000 nM and the Dmax came out at 40%.
`COc1c(COC(=O)Nc2ccc(Oc3ccc(Cl)c(F)c3)cc2)ccc2c1C(=O)N(C1CCC(=O)NC1=O)C2` (stereo not drawn) [Example 71, [2-(2,6-dioxopiperidin-3-yl)-4-methoxy-3-oxo-2,3-dihydro-1H-isoindol-5-yl]methyl N-[4-(4-chloro-3-fluorophenoxy)phenyl]carbamate]: at Cyclin E1, the DC50 stood at 241 nM, the Dmax was found to be 105% and the “Ratio of GSPT1 DC50/Cyclin E1 DC50” value is listed as greater than 58. In the assay with Phospho-Rb (Ser807/811), the IC50 is 234 nM and the Emax is 97%. For the same compound, on GSPT1, the DC50 was greater than 14000 nM and the Dmax is 27%.
On to `COc1c(COC(=O)Nc2ccc(C3(c4ccccc4)CC3)cc2)ccc2c1C(=O)N(C1CCC(=O)NC1=O)C2` (stereo not drawn) [Example 7, [2-(2,6-dioxopiperidin-3-yl)-4-methoxy-3-oxo-2,3-dihydro-1H-isoindol-5-yl]methyl N-[4-(1-phenylcyclopropyl)phenyl]carbamate], for which, on Cyclin E1, the DC50 is 203 nM, the Dmax was found to be 90% and the “Ratio of GSPT1 DC50/Cyclin E1 DC50” value was greater than 69. Also, in the assay on Phospho-Rb (Ser807/811), the IC50 is 1780 nM and the Emax was 10%. For the same compound, on GSPT1, the DC50 is greater than 14000 nM and the Dmax stood at 21%.
Take `COc1c(COC(=O)Nc2ccc(Oc3ccc(F)c(F)c3)cc2F)ccc2c1C(=O)N(C1CCC(=O)NC1=O)C2` (stereo not drawn) [Example 23, [2-(2,6-dioxopiperidin-3-yl)-4-methoxy-3-oxo-2,3-dihydro-1H-isoindol-5-yl]methyl N-[4-(3,4-difluorophenoxy)-2-fluorophenyl]carbamate]: at Cyclin E1, the DC50 stood at 71 nM, the Dmax was determined as 105% and the “Ratio of GSPT1 DC50/Cyclin E1 DC50” value is greater than 196. In the assay on Phospho-Rb (Ser807/811), the IC50 was 158 nM and the Emax stood at 97%. On GSPT1, the DC50 was greater than 14000 nM and the Dmax stood at 27%.
For the compound `COc1c(COC(=O)Nc2ccc(Oc3cc(F)c(F)cc3C)cc2)ccc2c1C(=O)N(C1CCC(=O)NC1=O)C2` (stereo not drawn) [Example 78, [2-(2,6-dioxopiperidin-3-yl)-4-methoxy-3-oxo-2,3-dihydro-1H-isoindol-5-yl]methyl N-[4-(4,5-difluoro-2-methylphenoxy)phenyl]carbamate], on Cyclin E1, it took 316 nM to reach half-maximal degradation (DC50), the Dmax amounted to 113% and the “Ratio of GSPT1 DC50/Cyclin E1 DC50” value is on record as greater than 44. Besides, in the assay on Phospho-Rb (Ser807/811), the midpoint of inhibition, the IC50, lay at 165 nM and the Emax stood at 126%. Moreover, on GSPT1, the DC50 is greater than 14000 nM and the Dmax is 2%.
In the case of `COc1c(COC(=O)Nc2ccc(C(F)(F)c3ccccc3)cc2)ccc2c1C(=O)N(C1CCC(=O)NC1=O)C2` (stereo not drawn) [Example 29, [2-(2,6-dioxopiperidin-3-yl)-4-methoxy-3-oxo-2,3-dihydro-1H-isoindol-5-yl]methyl N-{4-[difluoro(phenyl)methyl]phenyl}carbamate], at Cyclin E1, it took 1430 nM to reach half-maximal degradation (DC50), the Dmax stood at 92% and the “Ratio of GSPT1 DC50/Cyclin E1 DC50” value is listed as greater than 10. Moreover, in the assay with Phospho-Rb (Ser807/811), the IC50 was 865 nM and the Emax turned out to be 99%. For the same compound, at GSPT1, the DC50 was greater than 14000 nM and the Dmax came out at 45%.
On to `O=C1CCC(N2Cc3ccc(COC(=O)Nc4ccc(Oc5ccc(F)cc5)cc4F)c(OC4CCOCC4)c3C2=O)C(=O)N1` (stereo not drawn) [Example 135, [2-(2,6-dioxopiperidin-3-yl)-4-(oxan-4-yloxy)-3-oxo-2,3-dihydro-1H-isoindol-5-yl]methyl N-[2-fluoro-4-(4-fluorophenoxy)phenyl]carbamate], for which, at Cyclin E1, the half-maximal degradation concentration (DC50) was 17 nM, the Dmax was determined as 110% and the “Ratio of GSPT1 DC50/Cyclin E1 DC50” value was greater than 847. Also, in the assay on Phospho-Rb (Ser807/811), the IC50 came out at 27 nM and the Emax came out at 148%. For the same compound, at GSPT1, the DC50 was greater than 14000 nM and the Dmax came to 5%.
